Test results taken from ChEMBL document CHEMBL1155810, “Synthesis, structure-activity relationships, and biological profiles of a quinazolinone class of histamine H3 receptor inverse agonists” (J Med Chem, 2008).
Calls of active or inactive are those of the source. No cut-off for these calls is given here.

Tests used:
Histamine H3 receptor [1] = biological target: Histamine H3 receptor (Homo sapiens, UniProt Q9Y5N1); experiment: Inverse agonist activity at human histamine H3 receptor expressed in CHO-K1 cells assessed as inhibition of N-alpha-methylhistamine-induced [35S]GTPgammaS binding; type: functional, cell-based
Sequence of Histamine H3 receptor (Homo sapiens, UniProt Q9Y5N1) (Q9Y5N1 whole entry): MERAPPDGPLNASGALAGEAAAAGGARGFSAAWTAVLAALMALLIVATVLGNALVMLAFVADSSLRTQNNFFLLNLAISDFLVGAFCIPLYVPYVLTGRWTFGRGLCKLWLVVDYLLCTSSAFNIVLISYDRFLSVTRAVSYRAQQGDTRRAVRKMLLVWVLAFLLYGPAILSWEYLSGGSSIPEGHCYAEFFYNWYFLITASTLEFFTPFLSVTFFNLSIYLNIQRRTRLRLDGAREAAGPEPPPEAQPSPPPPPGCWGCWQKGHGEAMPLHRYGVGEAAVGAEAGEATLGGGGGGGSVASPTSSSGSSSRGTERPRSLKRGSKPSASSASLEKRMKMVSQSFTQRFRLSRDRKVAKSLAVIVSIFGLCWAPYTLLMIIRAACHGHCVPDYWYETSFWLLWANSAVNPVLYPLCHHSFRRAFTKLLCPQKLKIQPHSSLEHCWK

[2] = biological target: Voltage-gated inwardly rectifying potassium channel KCNH2 (Homo sapiens, UniProt Q12809)
Sequence of Voltage-gated inwardly rectifying potassium channel KCNH2 (Q12809 whole entry): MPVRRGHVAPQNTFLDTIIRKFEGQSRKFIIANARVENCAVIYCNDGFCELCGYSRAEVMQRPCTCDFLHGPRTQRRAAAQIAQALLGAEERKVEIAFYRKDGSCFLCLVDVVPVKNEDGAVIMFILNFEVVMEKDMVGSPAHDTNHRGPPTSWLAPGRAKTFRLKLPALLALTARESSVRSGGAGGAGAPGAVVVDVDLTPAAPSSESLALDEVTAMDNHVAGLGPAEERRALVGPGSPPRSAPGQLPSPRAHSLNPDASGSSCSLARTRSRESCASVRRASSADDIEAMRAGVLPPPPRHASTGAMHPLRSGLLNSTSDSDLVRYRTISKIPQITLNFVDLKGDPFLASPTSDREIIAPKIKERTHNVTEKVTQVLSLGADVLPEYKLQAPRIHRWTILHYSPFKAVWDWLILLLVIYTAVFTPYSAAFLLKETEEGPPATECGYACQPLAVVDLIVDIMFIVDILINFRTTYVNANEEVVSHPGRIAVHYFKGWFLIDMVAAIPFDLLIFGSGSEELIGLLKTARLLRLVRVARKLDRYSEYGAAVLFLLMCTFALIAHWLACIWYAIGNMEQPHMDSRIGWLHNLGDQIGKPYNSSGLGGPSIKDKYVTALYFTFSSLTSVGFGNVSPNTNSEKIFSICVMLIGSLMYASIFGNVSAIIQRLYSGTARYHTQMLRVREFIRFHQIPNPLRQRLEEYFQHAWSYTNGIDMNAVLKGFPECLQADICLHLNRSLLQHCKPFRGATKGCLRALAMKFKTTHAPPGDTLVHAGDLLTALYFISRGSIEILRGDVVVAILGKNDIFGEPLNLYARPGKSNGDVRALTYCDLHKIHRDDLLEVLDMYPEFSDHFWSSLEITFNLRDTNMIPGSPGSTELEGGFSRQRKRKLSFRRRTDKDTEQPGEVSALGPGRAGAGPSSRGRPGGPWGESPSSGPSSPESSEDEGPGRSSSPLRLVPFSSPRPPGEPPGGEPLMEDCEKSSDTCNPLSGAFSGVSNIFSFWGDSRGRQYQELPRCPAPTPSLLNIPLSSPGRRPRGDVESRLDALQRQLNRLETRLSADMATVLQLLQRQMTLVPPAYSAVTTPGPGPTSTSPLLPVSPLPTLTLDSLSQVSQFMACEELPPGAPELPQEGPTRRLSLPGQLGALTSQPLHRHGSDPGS

[3] = Ratio of drug level in MDR1a-deficient CF1 mouse brain to plasma at 10 mg/kg, po after 2 hrs; type: ADME, organism-based; design: dose 10 mg/kg, route oral; details: read-out: BPR
[4] = Half life in rhesus monkey at 1 mg/kg, iv; type: ADME, organism-based, Macaca mulatta; design: dose 1 mg/kg, route intravenous; details: in vivo
[5] = Oral bioavailability in Beagle dog at 3 mg/kg; type: ADME, organism-based, Canis lupus familiaris; details: in vivo
[6] = Ratio of drug level in Sprague-Dawley rat brain to plasma; type: ADME; details: read-out: BPR
Histamine H4 receptor = Histamine H4 receptor (Homo sapiens, UniProt Q9H3N8); experiment: Inhibition of human histamine H4 receptor
Sequence of Histamine H4 receptor (Q9H3N8 whole entry): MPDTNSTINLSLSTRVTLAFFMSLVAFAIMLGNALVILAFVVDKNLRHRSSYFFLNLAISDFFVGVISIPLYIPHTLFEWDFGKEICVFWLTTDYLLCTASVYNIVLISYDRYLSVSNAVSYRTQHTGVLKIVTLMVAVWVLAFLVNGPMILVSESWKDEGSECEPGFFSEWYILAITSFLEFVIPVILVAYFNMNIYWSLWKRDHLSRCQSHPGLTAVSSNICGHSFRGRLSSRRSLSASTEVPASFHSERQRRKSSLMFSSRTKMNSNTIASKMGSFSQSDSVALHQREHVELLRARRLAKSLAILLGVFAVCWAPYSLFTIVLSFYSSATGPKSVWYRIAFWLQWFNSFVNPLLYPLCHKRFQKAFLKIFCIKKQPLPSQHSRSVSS

Cytochrome P450 2A6 = biological target: T1, Cytochrome P450 2A6 (Homo sapiens, UniProt P11509); experiment: Inhibition of CYP2A6; type: ADME
T1 sequence (P11509 whole entry): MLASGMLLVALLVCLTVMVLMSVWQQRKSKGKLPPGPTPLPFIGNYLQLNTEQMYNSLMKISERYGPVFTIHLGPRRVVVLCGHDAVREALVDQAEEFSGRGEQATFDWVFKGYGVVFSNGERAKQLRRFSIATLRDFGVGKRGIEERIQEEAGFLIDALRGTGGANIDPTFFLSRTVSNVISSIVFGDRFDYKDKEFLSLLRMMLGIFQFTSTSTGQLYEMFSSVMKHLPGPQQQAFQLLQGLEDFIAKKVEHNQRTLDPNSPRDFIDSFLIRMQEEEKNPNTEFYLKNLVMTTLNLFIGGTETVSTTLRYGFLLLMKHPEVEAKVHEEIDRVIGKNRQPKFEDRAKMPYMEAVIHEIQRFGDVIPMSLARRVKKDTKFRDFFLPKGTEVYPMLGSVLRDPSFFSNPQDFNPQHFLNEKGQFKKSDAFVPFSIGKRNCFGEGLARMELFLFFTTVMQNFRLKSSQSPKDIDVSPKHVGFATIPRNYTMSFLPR

[7] = Plasma clearance in Beagle dog at 1 mg/kg, iv; type: ADME, organism-based, Canis lupus familiaris; design: dose 1 mg/kg, route intravenous
Cytochrome P450 3A4 = Cytochrome P450 3A4 (Homo sapiens, UniProt P08684); experiment: Inhibition of CYP3A4; type: ADME
Sequence of Cytochrome P450 3A4 (P08684 whole entry): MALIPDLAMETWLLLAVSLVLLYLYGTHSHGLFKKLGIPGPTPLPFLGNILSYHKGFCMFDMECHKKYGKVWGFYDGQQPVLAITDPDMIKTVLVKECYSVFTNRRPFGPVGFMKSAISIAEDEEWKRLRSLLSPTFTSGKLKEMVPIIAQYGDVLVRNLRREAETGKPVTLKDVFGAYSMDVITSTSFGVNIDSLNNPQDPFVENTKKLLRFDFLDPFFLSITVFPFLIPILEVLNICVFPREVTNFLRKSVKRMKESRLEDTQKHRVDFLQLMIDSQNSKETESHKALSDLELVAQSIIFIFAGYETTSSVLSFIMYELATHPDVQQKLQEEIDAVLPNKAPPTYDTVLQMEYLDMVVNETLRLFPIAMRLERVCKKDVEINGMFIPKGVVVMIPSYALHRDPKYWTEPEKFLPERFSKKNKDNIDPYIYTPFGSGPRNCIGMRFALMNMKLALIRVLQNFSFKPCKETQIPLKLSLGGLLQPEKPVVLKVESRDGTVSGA

[8] = Volume of distribution at steady state in Sprague-Dawley rat at 1 mg/kg, iv; type: ADME, organism-based; design: dose 1 mg/kg, route intravenous; details: in vivo, read-out: Vdss
[9] = Plasma concentration in Sprague-Dawley rat at 10 mg/kg, po after 2 hrs; type: ADME, organism-based; design: dose 10 mg/kg, route oral
[10] = Volume of distribution at steady state in rhesus monkey at 1 mg/kg, iv; type: ADME, organism-based, Macaca mulatta; design: dose 1 mg/kg, route intravenous; details: in vivo, read-out: Vdss
[11] = Cmax in Beagle dog at 3 mg/kg, po; type: ADME, organism-based, Canis lupus familiaris; design: dose 3 mg/kg, route oral; details: in vivo
Mus musculus [12] = species on record: Mus musculus; experiment: Ex vivo receptor occupancy of […] histamine H3 receptor in wild type MDR1a-proficient CF1 mouse plasma; type: functional
[13] = Oral bioavailability in Sprague-Dawley rat at 3 mg/kg; type: ADME, organism-based; details: in vivo
[14] = Plasma clearance in rhesus monkey at 1 mg/kg, iv; type: ADME, organism-based, Macaca mulatta; design: dose 1 mg/kg, route intravenous
[15] = Ratio of drug level in wild type MDR1a-proficient CF1 mouse brain to plasma at 10 mg/kg, po after 2 hrs; type: ADME, organism-based; design: dose 10 mg/kg, route oral; details: read-out: BPR
Histamine receptor H3 = Histamine receptor H3 (Macaca mulatta, UniProt Q865E1); experiment: Displacement of [3H]N-alpha-methylhistamine from rhesus monkey histamine H3 receptor expressed in HEK293T cells; type: cell-based, HEK-293T
Sequence of Histamine receptor H3 (Q865E1 whole entry): as the sequence (Q9Y5N1 whole entry) above, with D148N, A240G, V282A, A289T, T290A, V300A, H442Q counted along it

Mus musculus [16] = species on record: Mus musculus; experiment: Ex vivo receptor occupancy of […] histamine H3 receptor in MDR1a-deficient CF1 mouse brain; type: functional
[17] = AUC (0 to infinity) in Beagle dog at 3 mg/kg, po; type: ADME, organism-based, Canis lupus familiaris; design: time infinity, dose 3 mg/kg, route oral; details: plasma
Histamine H2 receptor = Histamine H2 receptor (Homo sapiens, UniProt P25021); experiment: Inhibition of human histamine H2 receptor
Sequence of Histamine H2 receptor (P25021 whole entry): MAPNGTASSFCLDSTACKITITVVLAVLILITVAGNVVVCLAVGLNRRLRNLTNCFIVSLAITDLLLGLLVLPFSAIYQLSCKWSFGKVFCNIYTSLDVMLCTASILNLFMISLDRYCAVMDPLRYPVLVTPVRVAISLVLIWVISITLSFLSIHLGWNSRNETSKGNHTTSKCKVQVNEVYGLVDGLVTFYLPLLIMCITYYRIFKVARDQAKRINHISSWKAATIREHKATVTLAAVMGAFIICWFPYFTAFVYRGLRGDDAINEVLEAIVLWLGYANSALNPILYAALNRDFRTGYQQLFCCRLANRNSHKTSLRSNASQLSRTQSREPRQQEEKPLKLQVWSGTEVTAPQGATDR

Histamine H1 receptor = Histamine H1 receptor (Homo sapiens, UniProt P35367); experiment: Inhibition of human histamine H1 receptor
Sequence of Histamine H1 receptor (P35367 whole entry): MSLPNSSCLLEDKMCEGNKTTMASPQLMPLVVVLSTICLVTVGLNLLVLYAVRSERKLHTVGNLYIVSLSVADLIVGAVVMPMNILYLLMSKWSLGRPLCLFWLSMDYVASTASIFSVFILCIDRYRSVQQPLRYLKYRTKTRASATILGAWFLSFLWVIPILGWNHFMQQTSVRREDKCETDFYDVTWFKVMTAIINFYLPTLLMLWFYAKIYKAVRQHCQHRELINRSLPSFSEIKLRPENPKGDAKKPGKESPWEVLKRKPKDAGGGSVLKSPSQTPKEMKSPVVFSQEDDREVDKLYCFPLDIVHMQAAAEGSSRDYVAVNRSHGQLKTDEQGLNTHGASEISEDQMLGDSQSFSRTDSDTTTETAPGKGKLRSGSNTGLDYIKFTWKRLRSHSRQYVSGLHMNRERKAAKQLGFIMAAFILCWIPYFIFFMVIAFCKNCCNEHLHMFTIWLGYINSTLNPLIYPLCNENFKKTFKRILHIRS

[18] = AUC (0 to infinity) in Sprague-Dawley rat at 3 mg/kg, po; type: ADME, organism-based; design: time infinity, dose 3 mg/kg, route oral; details: plasma
[19] = Oral bioavailability in rhesus monkey at 3 mg/kg; type: ADME, organism-based, Macaca mulatta; details: in vivo
[20] = AUC (0 to infinity) in rhesus monkey at 3 mg/kg, po; type: ADME, organism-based, Macaca mulatta; design: time infinity, dose 3 mg/kg, route oral; details: plasma
Cytochrome P450 2D6 = Cytochrome P450 2D6 (Homo sapiens, UniProt P10635); experiment: Inhibition of CYP2D6; type: ADME
Rattus norvegicus [21] = experiment: Effect on histamine release in Sprague-Dawley rat brain assessed as increase in tele-methylhistamine level at 30 mg/kg, po after 2 hrs; type: functional, organism-based; design: dose 30 mg/kg
Brain = experiment: Drug level in Sprague-Dawley rat brain at 10 mg/kg, po after 2 hrs; type: ADME, organism-based; design: dose 10 mg/kg, route oral; details: in vivo
Mus musculus [22] = species on record: Mus musculus; experiment: Ex vivo receptor occupancy of […] histamine H3 receptor in MDR1a-deficient CF1 mouse plasma; type: functional
Rattus norvegicus [23] = experiment: Ex vivo increase in receptor occupancy of histamine H3 receptor in Sprague-Dawley rat brain at 30 mg/kg, po by autoradiography; type: functional
[24] = Half life in Beagle dog at 1 mg/kg, iv; type: ADME, organism-based, Canis lupus familiaris; design: dose 1 mg/kg, route intravenous; details: in vivo
[25] = Volume of distribution at steady state in Beagle dog at 1 mg/kg, iv; type: ADME, organism-based, Canis lupus familiaris; design: dose 1 mg/kg, route intravenous; details: in vivo, read-out: Vdss
[26] = Cmax in Sprague-Dawley rat at 3 mg/kg, po; type: ADME, organism-based; design: dose 3 mg/kg, route oral; details: in vivo
[27] = Plasma clearance in Sprague-Dawley rat at 1 mg/kg, iv; type: ADME, organism-based; design: dose 1 mg/kg, route intravenous
Cytochrome P450 1A2 = biological target: T2, Cytochrome P450 1A2 (Homo sapiens, UniProt P05177); experiment: Inhibition of CYP1A2; type: ADME
T2 sequence (P05177 whole entry): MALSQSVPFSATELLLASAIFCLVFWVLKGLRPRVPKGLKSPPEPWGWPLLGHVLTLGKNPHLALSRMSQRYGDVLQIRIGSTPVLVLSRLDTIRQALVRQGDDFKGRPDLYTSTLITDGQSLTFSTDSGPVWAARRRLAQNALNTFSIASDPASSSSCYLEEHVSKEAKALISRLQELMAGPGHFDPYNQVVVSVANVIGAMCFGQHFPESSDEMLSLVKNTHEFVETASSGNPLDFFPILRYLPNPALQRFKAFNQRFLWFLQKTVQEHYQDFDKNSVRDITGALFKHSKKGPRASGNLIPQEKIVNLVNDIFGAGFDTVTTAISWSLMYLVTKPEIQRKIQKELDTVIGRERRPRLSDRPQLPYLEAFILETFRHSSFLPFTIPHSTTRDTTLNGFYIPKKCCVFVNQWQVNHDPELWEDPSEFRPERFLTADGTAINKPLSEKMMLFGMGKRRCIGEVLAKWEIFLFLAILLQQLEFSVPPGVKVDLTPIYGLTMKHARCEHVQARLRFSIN

Mus musculus [28] = species on record: Mus musculus; experiment: Ex vivo receptor occupancy of […] histamine H3 receptor in wild type MDR1a-proficient CF1 mouse brain; type: functional
Cytochrome P450 2C19 = Cytochrome P450 2C19 (Homo sapiens, UniProt P33261); experiment: Inhibition of CYP2C19; type: ADME
Sequence of Cytochrome P450 2C19 (P33261 whole entry): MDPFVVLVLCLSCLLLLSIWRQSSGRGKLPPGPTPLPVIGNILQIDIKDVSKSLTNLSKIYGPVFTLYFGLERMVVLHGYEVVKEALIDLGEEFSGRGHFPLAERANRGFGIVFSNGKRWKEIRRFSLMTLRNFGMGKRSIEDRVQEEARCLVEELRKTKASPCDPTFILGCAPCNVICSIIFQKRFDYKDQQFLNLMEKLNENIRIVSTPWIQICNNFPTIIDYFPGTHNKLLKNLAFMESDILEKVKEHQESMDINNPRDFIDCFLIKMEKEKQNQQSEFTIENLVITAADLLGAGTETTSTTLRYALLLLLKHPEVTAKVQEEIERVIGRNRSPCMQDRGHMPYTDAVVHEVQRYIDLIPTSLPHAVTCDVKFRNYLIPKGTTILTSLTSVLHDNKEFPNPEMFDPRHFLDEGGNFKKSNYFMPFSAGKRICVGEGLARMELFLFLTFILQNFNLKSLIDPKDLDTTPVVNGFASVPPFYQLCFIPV

Cytochrome P450 2C9 = Cytochrome P450 2C9 (Homo sapiens, UniProt P11712); experiment: Inhibition of CYP2C9; type: ADME
Sequence of Cytochrome P450 2C9 (P11712 whole entry): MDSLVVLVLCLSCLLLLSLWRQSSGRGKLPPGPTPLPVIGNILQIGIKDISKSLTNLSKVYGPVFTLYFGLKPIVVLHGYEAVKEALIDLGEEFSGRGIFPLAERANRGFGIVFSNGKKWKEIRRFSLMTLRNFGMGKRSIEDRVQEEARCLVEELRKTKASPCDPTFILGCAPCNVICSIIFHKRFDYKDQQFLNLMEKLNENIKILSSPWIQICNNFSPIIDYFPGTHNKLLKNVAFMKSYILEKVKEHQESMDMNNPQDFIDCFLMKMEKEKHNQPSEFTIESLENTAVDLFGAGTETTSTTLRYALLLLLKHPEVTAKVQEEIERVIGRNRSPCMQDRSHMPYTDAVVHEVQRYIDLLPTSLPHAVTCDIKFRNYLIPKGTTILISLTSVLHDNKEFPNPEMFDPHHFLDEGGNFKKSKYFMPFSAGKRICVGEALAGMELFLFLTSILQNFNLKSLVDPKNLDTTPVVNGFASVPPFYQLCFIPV

[29] = Half life in Sprague-Dawley rat at 1 mg/kg, iv; type: ADME, organism-based; design: dose 1 mg/kg, route intravenous; details: in vivo
Histamine H3 receptor [30] = biological target: Histamine H3 receptor (Rattus norvegicus, UniProt Q9QYN8); experiment: Displacement of [3H]N-alpha-methylhistamine from rat histamine H3 receptor expressed in HEK293 cells coexpressed with CRE-beta-lactamase; type: cell-based
Sequence of Histamine H3 receptor (Rattus norvegicus, UniProt Q9QYN8) (Q9QYN8 whole entry): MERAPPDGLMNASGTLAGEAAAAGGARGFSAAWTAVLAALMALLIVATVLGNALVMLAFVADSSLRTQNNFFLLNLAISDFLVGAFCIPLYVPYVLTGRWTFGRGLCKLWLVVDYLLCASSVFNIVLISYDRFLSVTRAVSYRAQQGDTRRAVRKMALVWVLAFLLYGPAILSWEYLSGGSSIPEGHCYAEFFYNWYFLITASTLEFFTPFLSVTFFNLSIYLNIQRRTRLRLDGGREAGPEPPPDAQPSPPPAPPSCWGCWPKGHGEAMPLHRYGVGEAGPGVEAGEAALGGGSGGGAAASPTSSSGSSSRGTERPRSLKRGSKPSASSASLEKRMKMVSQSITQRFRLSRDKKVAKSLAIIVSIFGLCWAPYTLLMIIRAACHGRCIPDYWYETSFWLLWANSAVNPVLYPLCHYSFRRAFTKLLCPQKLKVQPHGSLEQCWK

[31] = Cmax in rhesus monkey at 3 mg/kg, po; type: ADME, organism-based, Macaca mulatta; design: dose 3 mg/kg, route oral; details: in vivo

## Cc1nc2ccccc2c(=O)n1-c1ccc(OCCCN2[C@H](C)CC[C@H]2C)cc1
Histamine H3 receptor [1]
  IC50: 20 nM

## Cc1nc2ccccc2c(=O)n1-c1ccc(OCCCN2CC(C)CC(C)C2)cc1 (configuration not stated)
Histamine H3 receptor [1]
  IC50: 28 nM

## Cc1nc2ccccc2c(=O)n1-c1ccc(OCCCN2CCCCCC2)cc1
Histamine H3 receptor [1]
  IC50: 1.6 nM

## Cc1nc2ccccc2c(=O)n1-c1ccc(OCCCN2CCC[C@@H]2C)cc1
[2]
  IC50: 6000 nM
Histamine H3 receptor [1]
  IC50: 2.2 nM

## Cc1nc2ccccc2c(=O)n1-c1ccc(OCCCN2CCC[C@H]2C)cc1
[2]
  IC50: > 10000 nM
Histamine H3 receptor [1]
  IC50: 4.3 nM

## Cc1nc2ccccc2c(=O)n1-c1ccc(OCCCN2CCC(C)CC2)cc1
Histamine H3 receptor [1]
  IC50: 23 nM

## Cc1nc2ccccc2c(=O)n1-c1ccc(OCCCN2CCC[C@H](C)C2)cc1
[2]
  IC50: 5300 nM
Histamine H3 receptor [1]
  IC50: 0.72 nM

## Cc1nc2ccccc2c(=O)n1-c1ccc(OCCCN2CCCCCCC2)cc1
Histamine H3 receptor [1]
  IC50: 10 nM

## Cc1nc2ccccc2c(=O)n1-c1ccc(OCCCN2CCCCC2C)cc1 (configuration not stated)
Histamine H3 receptor [1]
  IC50: 11 nM

## Cc1nc2ccccc2c(=O)n1-c1ccc(OCCCN2CCCCC2)cc1
Histamine H3 receptor [1]
  IC50: 3.1 nM

## Cc1nc2ccccc2c(=O)n1-c1ccc(OCCCN2CCC(C)C2)cc1 (configuration not stated)
[2]
  IC50: 6400 nM
Histamine H3 receptor [1]
  IC50: 5.8 nM

## Cc1nc2ccccc2c(=O)n1-c1ccc(OCCCN2CCC[C@@H](C)C2)cc1
Histamine H3 receptor [1]
  IC50: 41 nM

## CCN(CC)CCCOc1ccc(-n2c(C)nc3ccccc3c2=O)cc1
Histamine H3 receptor [1]
  IC50: 33 nM

## Cc1nc2cccc(C(F)(F)F)c2c(=O)n1-c1ccc(OCCCN2CCCC2)cc1 [MK-0249]
[3]
  Kp at 2 h: 14
[4]
  half-life: 5.4 h
[5]
  bioavailability: > 100%
[6]
  Kp: 1.1
Histamine H4 receptor
  IC50: > 10000 nM
Cytochrome P450 2A6
  IC50: > 27000 nM
[7]
  clearance: 19 mL/min/kg
Cytochrome P450 3A4
  IC50: > 27000 nM
[8]
  Vd: 4.4 L/kg
[9]
  concentration at 2 h: 1580 nM
[10]
  Vd: 6 L/kg
[11]
  Cmax: 1800 nM
Mus musculus [12]
  Occ90: 1.17 µM
[13]
  bioavailability: 65%
[14]
  clearance: 18 mL/min/kg
[15]
  Kp at 2 h: 0.8
Histamine receptor H3
  Ki: 4.3 nM
Mus musculus [16]
  Occ90: 2 nmol/g
[17]
  AUC(0-inf): 11.8 µM·h
Histamine H2 receptor
  IC50: > 10000 nM
Histamine H1 receptor
  IC50: > 10000 nM
[18]
  AUC(0-inf): 6.35 µM·h
[19]
  bioavailability: 28%
[20]
  AUC(0-inf): 1.84 µM·h
Cytochrome P450 2D6
  IC50: > 27000 nM
Rattus norvegicus [21]
  Activity: Active
Brain
  Drug uptake: 1.67 nmol/g
Mus musculus [22]
  Occ90: 40 nM
Rattus norvegicus [23]
  Activity: >90%
[24]
  half-life: 9.9 h
[25]
  Vd: 9.7 L/kg
[26]
  Cmax: 1010 nM
[27]
  clearance: 12 mL/min/kg
Cytochrome P450 1A2
  IC50: > 27000 nM
Mus musculus [28]
  Occ90: 2 nmol/g
Cytochrome P450 2C19
  IC50: > 27000 nM
Cytochrome P450 2C9
  IC50: > 21000 nM
[29]
  half-life: 5.5 h
Histamine H3 receptor [30]
  Ki: 33 nM
[31]
  Cmax: 440 nM
